Source: patent publication US8481527B2, “Benzamide derivatives as bradykinin antagonists” (Richter Gedeon Nyrt., priority 2006, dated 2013)
Where a name gives a salt, the structure may show the parent alone. Read-outs that look alike come from different tables or passages of the source.

Tests used:
[1] = biological target: T1, human recombinant bradykinin B1 receptor (Homo sapiens, UniProt P46663); test: Human recombinant bradykinin B1 receptor binding
T1 construct: purchased Euroscreen ES-091; host or cells: CHO cells
T1 sequence (P46663 1-353): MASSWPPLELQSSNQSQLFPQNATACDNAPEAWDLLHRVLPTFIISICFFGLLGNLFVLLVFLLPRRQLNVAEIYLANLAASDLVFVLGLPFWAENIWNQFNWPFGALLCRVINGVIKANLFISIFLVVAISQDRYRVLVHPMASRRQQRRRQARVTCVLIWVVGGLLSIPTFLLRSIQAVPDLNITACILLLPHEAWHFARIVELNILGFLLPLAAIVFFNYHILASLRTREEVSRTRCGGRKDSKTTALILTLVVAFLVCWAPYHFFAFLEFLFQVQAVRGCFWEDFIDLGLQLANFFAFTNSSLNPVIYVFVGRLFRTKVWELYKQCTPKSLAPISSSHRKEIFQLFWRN
Procedure: Receptor Binding Assays 1. Human Recombinant Bradykinin B1 Receptor Binding
Binding assays were carried out on human recombinant bradykinin) receptors (expressed in CHO cells) according to the Euroscreen Technical Data Sheet (Cat.No.:ES-091). 20 μg protein/tube was incubated with [3,4-prolyl-3,4-^3H(N)]-[Des-Arg^10] Kallidin as radioligand. Non specific binding was determined in the presence of 10 μM Lys-des-Arg^9-Bradykinin. The final incubation volume was 250 μl. Samples were incubated for 15 min. at 25° C. then were rapidly vacuum filtered through GF/B filters presoaked for at least 1 h in 0.5% PEI. Radioactivity was determined by liquid scintillation spectroscopy.

[2] = biological target: T2, recombinant human B1 receptors (Homo sapiens, UniProt P46663); test: Functional assay: antagonist potency by cytosolic calcium measurement in CHO-B1 cells (agonist LysDABK); assay type: cell-based
T2 construct: host or cells: CHO (CHO-B1)
T2 sequence (P46663 1-353): T1 sequence (P46663 1-353)
Procedure: Assessment of Antagonist Potency at B1 and B2 Receptors In Vitro by Measurement of Cytosolic Calcium Ion Concentration with a Plate Reader Fluorimeter in Cells Expressing Recombinant Human B1 or B2 Receptors
Chinese hamster ovary (CHO) cells stably expressing recombinant human B1 (CHO-B1, Euroscreen) or B2 (CHO-B2, Perkin-Elmer) receptors were cultured in Dulbecco's Modified Eagle's Medium (DMEM) containing 10% Fetal Calf Serum (FCS), 100 U/ml penicillin, 0.1 mg/ml streptomycin, 0.25 μg/ml amphotericin B, 1% Minimum Essential Medium Eagle (MEM), non essential amino acid solution, 600 μg/ml G418, 1% pyruvate (for the B2 cell line). Cells were kept at 37° C. in a humidified incubator in an atmosphere of 5% CO2/95% air and were passaged 1:4 three times a week. Cells were plated at 1.5-2.5×10^4 cell/well on standard 96-well microplates, measurements of cytosolic calcium ion concentration ([Ca^2+]i) were carried out 1-2 days after cell plating.
Measurements of [Ca^2+]i were carried out on CHO-B1 and CHO-B2 cells stably expressing human B1 and B2 receptors, respectively. Cells were grown in standard 96-well microplates and before the measurement were loaded with a fluorescent Ca^2+-sensitive dye, fluo-4/AM (2 μM): after removing the culture medium the dye was added to the cells (dissolved in assay buffer: 145 mM NaCl, 5 mM KCl, 2 mM MgCl2, 2 mM CaCl2, 10 mM HEPES, 20 mM D-glucose, 2 mM probenecid, 100 μl/well) and cells were incubated at 37° C. in a humidified incubator in an atmosphere of 5% CO2/95% air for 40-120 min. To stop dye loading cells were washed twice with assay buffer. After washing, various concentrations of the test compounds (diluted in extracellular medium from a DMSO stock solution, final DMSO concentration was <0.1%) or buffer were added to each well depending on the experimental setup. After incubation at 37° C. for 20-25 min. baseline and agonist-evoked changes of [Ca^2+]i were measured column by column with a plate reader fluorimeter (Fluoroskan Ascent, Labsystems). Excitation and detection of emission was carried out from the bottom of the plate. Filters used for Fluo-4: excitation filter—485 nm, emission filter—538 nm. The whole measurement process was performed at 37° C. and was controlled by custom software. Inhibitory potency of the test compounds was assessed by measuring the reduction in the agonist-evoked [Ca^2+]i-elevation in the presence of different concentrations of the compounds. The agonists were LysDABK for CHO-B1, and bradykinin for CHO-B2 cells. Agonists were applied at an EC80 concentration, the EC80-values were derived from daily determined dose-response curves. Fluorescence data were expressed as ΔF/F (fluorescence change normalized to baseline). All treatments on a single plate were measured in multiple wells. Data from all wells with the same treatment were averaged and the average values were used for analysis. Inhibitory potency of a compound at a single concentration point was expressed as percent inhibition of the control agonist response. Sigmoidal concentration-inhibition curves were fitted to the data (derived from at least three independent experiments) and IC50-values were determined as the concentration that produces half of the maximal inhibition caused by the compound.

[3] = CHO cell membranes, [3H]-[Des-Arg10] Kallidin radioligand, read-out: B1 binding
[4] = CHO-B1 cells, LysDABK at EC80, fluo-4 [Ca2+]i, read-out: B1 func.
[5] = reference compounds, binding test, read-out: Ki
[6] = reference compounds, functional test, read-out: IC50

| Structure (SMILES) | Ki [1, 3] | IC50 [2, 4] | Ki [1, 5] | IC50 [2, 6] |
| --- | --- | --- | --- | --- |
| O=C(NCC(=O)N1CCNCC1)c1ccc(S(=O)(=O)Nc2ccccc2Oc2ccccc2)cc1 [Example 11.2, N-(2-Oxo-2-piperazin-1-yl-ethyl)-4-(2-phenoxy-phenylsulfamoyl)-benzamide hyrochloride] | 20 to 100 nM | < 20 nM |  |  |
| NC1CCN(C(=O)CNC(=O)c2ccc(S(=O)(=O)Nc3ccccc3Oc3ccccc3)cc2)CC1 [Example 11.3, N-[2-(4-Amino-piperidin-1-yl)-2-oxo-ethyl]-4-(2-phenoxy-phenylsulfamoyl)-benzamide hydrochloride] | < 20 nM | < 20 nM |  |  |
| CN1CCN(C(=O)C2CCN(S(=O)(=O)c3ccc(NCC(c4ccccc4)c4ccccc4)c(C(=O)N4CCOCC4)c3)CC2)CC1 [NVP-SAA164, 4-{2-[(2,2-diphenyl-ethyl)-amino]-5-{-4-[4-[(4-methyl-1-piperazinyl)-carbonyl]-1-piperidinyl]-sulfonyl}-benzoyl}-morfoline, reference compound] |  |  | 8 nM | 33 nM |
| CCCN1C(=O)[C@H](NC(=O)Nc2ccc(N3CCC(N4CCCCC4)CC3)cc2)N=C(c2ccc(C)cc2)c2ccccc21 [compound 3, N-[4-(,4′-bipiperidin)-1′-ylphenyl]-N′-[(3R)-2,3-dihydro-5-(4-methyl-phenyl)-2-oxo-1-propyl-1H-1,4-benzodiazepin-3-yl]-urea, reference compound] |  |  | 13.4 nM | 64.5 nM |

Now from value to compound, other results behind:

| Ki [1, 3] | IC50 [2, 4] | Structure (SMILES) | Ki [1, 5] | IC50 [2, 6] |
| --- | --- | --- | --- | --- |
| < 20 nM | < 20 nM | O=C(NCC(=O)N1CCNCC1)c1ccc(S(=O)(=O)Nc2ccccc2Oc2ccc(Cl)cc2Cl)cc1 [Example 11.4, 4-[2-(2,4-Dichloro-phenoxy)-phenylsulfamoyl]-N-(2-oxo-2-piperazin-1-yl-ethyl)-benzamide hydrochloride] |  |  |
| < 20 nM | < 20 nM | O=C(NCC(=O)N1CCCNCC1)c1ccc(S(=O)(=O)Nc2ccccc2Oc2ccc(Cl)cc2Cl)cc1 [Example 11.5, N-(2-[1,4]Diazepan-1-yl-2-oxo-ethyl)-4-[2-(2,4-dichloro-phenoxy)-phenylsulfamoyl]-benzamide hydrochloride] |  |  |
| < 20 nM | < 20 nM | O=C(NCC(=O)N1CCCNCC1)c1ccc(S(=O)(=O)Nc2ccccc2C(=O)c2ccccc2)cc1 [Example 11.6, 4-(2-Benzoyl-phenylsulfamoyl)-N-(2-[1,4]diazepan-1-yl-2-oxo-ethyl)-benzamide hydrochloride] |  |  |
| < 20 nM | < 20 nM | O=C(NCC(=O)N1CCNCC1)c1ccc(S(=O)(=O)Nc2ccccc2C(=O)c2ccccc2)cc1 [Example 11.7, 4-(2-Benzoyl-phenylsulfamoyl)-N-(2-oxo-2-piperazin-1-yl-ethyl)-benzamide hydrochloride] |  |  |
